Measurements reported in PubChem BioAssay (NCI).
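All cell lines were grown in 96-well plates and treated with compound for 48 hours. GI50 = concentration required for 50% inhibition of growth. At the TGI there is no net growth.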

Legend:
Assay in all cases: NCI anticancer screen, dose series, 48 h
[1] = tested on: OVCAR-3 ovarian
[2] = tested on: HOP-92 NSCLC
[3] = tested on: SK-MEL-28 melanoma
[4] = tested on: NCI-H460 lung
[5] = tested on: SF-539 CNS
[6] = tested on: OVCAR-4 ovarian
[7] = tested on: HL-60(TB) leukemia
[8] = tested on: SK-OV-3 ovarian
[9] = tested on: CAKI-1 renal
[10] = tested on: MCF7 breast

Compound | GI50 [1] [µM] | TGI [1] [µM] | GI50 [2] [µM] | TGI [2] [µM] | GI50 [3] [µM] | TGI [3] [µM] | GI50 [4] [µM] | TGI [4] [µM] | GI50 [5] [µM] | TGI [5] [µM] | GI50 [6] [µM] | TGI [6] [µM] | GI50 [7] [µM] | TGI [7] [µM] | GI50 [8] [µM] | TGI [8] [µM] | GI50 [9] [µM] | TGI [9] [µM] | TGI [10] [µM] | GI50 [10] [µM]
CC(=O)[CH-]C(=O)c1ccccc1.CC(=O)[CH-]C(=O)c1ccccc1.Cl.[O-]c1ccnc2ccccc12.[O-]c1ccnc2ccccc12.[Ti+4] | > 100 | > 100 | > 100 | > 100 | > 100 | > 100 | > 100 | > 100 | > 100 | > 100 | > 100 | > 100 | > 100 | > 100 | > 100 | > 100 | 48.7 | > 100 | – | –
O=C(NC1CC1)c1c(O)[nH]c(=S)[nH]c1=O | – | > 100 | – | > 100 | – | > 100 | – | > 100 | – | > 100 | – | > 100 | – | > 100 | – | > 100 | – | > 100 | – | –
Cc1ccccc1NC(=O)/C(=N\NC(N)=S)C(C#N)c1ccccc1 (configuration not stated) | – | > 100 | – | > 100 | – | > 100 | – | > 100 | – | > 100 | – | > 100 | – | > 100 | – | > 100 | – | – | – | –
CC(=Nc1ccc(N(C)C)cc1)c1ccccc1 | – | 32.2 | – | – | – | > 100 | – | > 100 | – | > 100 | – | 40.8 | – | 43.9 | – | > 100 | – | 34 | 46.9 | –
Cc1cccc(C)c1NC(=O)CCC(=O)NC(N)=NC#N | – | > 100 | – | > 100 | – | > 100 | – | > 100 | – | > 100 | – | > 100 | – | > 100 | – | > 100 | – | > 100 | – | –
Cc1ccc(S(=O)(=O)OCOS(=O)(=O)c2ccc(C)cc2)cc1 | – | > 100 | – | – | – | > 100 | – | > 100 | – | > 100 | – | – | – | > 100 | – | > 100 | – | – | – | –
C[C@]12CC[C@H](O[C@@H]3O[C@H](CO[C@@H]4O[C@H](CO)[C@@H](O)[C@H](O)[C@H]4O)[C@@H](O)[C@H](O)[C@H]3O)C[C@@H]1CC[C@@H]1[C@@H]2CC[C@]2(C)[C@@H](C3=CC(=O)OC3)CC[C@]12O | – | > 74.1 | – | > 89.1 | – | > 100 | – | > 44.9 | – | 33.2 | – | 57.8 | – | 54.9 | – | > 72.6 | – | > 58.9 | – | –
Cc1ccc2c(c1)-c1c3c(nn1C)-c1ccccc1SC3O2 (configuration not stated) | – | > 100 | – | > 100 | – | > 100 | – | > 100 | – | > 100 | – | – | – | > 100 | – | > 100 | – | – | – | –
Cc1cccc(NC(=O)C(=O)C(C2OC(=O)c3ccccc32)[N+](=O)[O-])c1C (configuration not stated) | – | 5.11 | – | – | – | 25.1 | – | 18.7 | – | 34.9 | – | 25.8 | – | 6.94 | – | 26.7 | – | 24.2 | – | –
COc1ccc(Oc2nc3cc(N)cc(N)c3nc2-c2ccccc2)cc1 | 14.9 | 72.7 | – | – | 19.6 | 49 | 30.6 | > 100 | 23.3 | 61.1 | 3.75 | 24.6 | 15.4 | > 100 | 25.5 | 55 | 79.6 | > 100 | > 100 | 48.2
COc1cc(C(=O)/C=C/c2cc(-c3ccc4c(c3)OCO4)n[nH]2)cc(OC)c1OC | 1.71 | 3.5 | – | – | 1.92 | 4.18 | 1.81 | 3.77 | 1.33 | 2.98 | 0.885 | 4.24 | 2.17 | 6.49 | 4.44 | 14.6 | 1.99 | 5.65 | 2.88 | 1.06
CCC12C=CCN(CCc3c([nH]c4ccccc34)/C=C\1)C2 (configuration not stated) | – | > 100 | – | – | – | – | – | > 100 | – | > 100 | – | > 100 | – | > 100 | – | – | – | > 100 | – | –
COC(=O)[C@H](Cc1cn(C)cn1)NC(=O)[C@H](CC(=O)OCc1ccccc1)NC(=O)Nc1cc(C(F)(F)F)cc(C(F)(F)F)c1 | 2.5 | 6.25 | – | – | 9.51 | 21.6 | 13.4 | 28.7 | 12.4 | 25.6 | 11.6 | 27.1 | 12.3 | 27.1 | 9.07 | 21.4 | 14.1 | 27.8 | > 100 | 3.74
Nc1cccc2c1-c1c(cccc1[N+](=O)[O-])C2=O | – | > 100 | – | > 100 | – | – | – | > 100 | – | > 100 | – | > 100 | – | > 100 | – | > 100 | – | > 100 | – | –
C[P+]1(Cc2ccccc2)CCCC1 | – | > 100 | – | – | – | > 100 | – | > 100 | – | > 100 | – | – | – | > 100 | – | > 100 | – | – | – | –
